Measurements: PMC9147390, “Evaluation of TILI-2 as an Anti-Tyrosinase, Anti-Oxidative Agent and Its Role in Preventing Melanogenesis Using a Proteomics Approach” (Molecules, 2022)
No end group written: not given here.

Assays:
[1] = ABTS radical scavenging assay; conditions: 0 to 50 µM, 6 min, room temperature
Method: The ABTS radical scavenging assay was performed with slight modifications of the protocol reported by Re et al.. Briefly, ABTS^+ was generated by the incubation of 7 mM ABTS with 2.45 mM potassium persulfate for 16 h at room temperature. Next, the ABTS radical solution was diluted until the absorbance at 734 nm was 0.7. The diluted ABTS radical solution (100 µL) was mixed with TILI-2 (final concentration 0–200 µM, 10 µL) and incubated at room temperature for 6 min. After that, the absorbance at 734 nm was measured using a SpectraMax M5 plate reader (Molecular Devices, Sunnyvale, CA, USA). The percentage of ABTS radical inhibition was calculated using the equation below: ABTS radical inhibition %=1−A734 sample/A734 control×100 where A734 sample and A734 control are the absorbance at 734 nm of the reaction with and without peptide.
(§1) The data were represented as mean ± SD (n = 3). An ANOVA test according to Duncan (p < 0.05) was used for each comparison (IBM SPSS Statistics 20).

[2] = DPPH radical scavenging assay; conditions: 0 to 200 µM, 30 min, room temperature, dark
Method: The DPPH radical scavenging assay was performed with slight modifications of the protocol reported by Jandaruang et al.. Briefly, a DPPH radical solution (0.1 mM, 100 µL) was mixed with TILI-2 (final concentration 0–200 µM, 10 µL) and incubated at room temperature in the dark for 30 min. Then, the reaction was monitored by measuring the absorbance of 515 nm using a SpectraMax M5 plate reader (Molecular Devices, Sunnyvale, CA, USA). DPPH radical inhibition (%) was calculated using the equation below: DPPH radical inhibition %=1−A515 sample/A515 control×100 where A515 sample and A515 control are the absorbance at 515 nm of the reaction with and without peptide.
as §1

[3] = test system: mouse melanoma (B16F1) cells; conditions: B16F1, 350 µM; cited from earlier work
[4] = test system: human keratinocyte (HaCaT); conditions: new results consistent with previous reports; cited from earlier work
NHDF cells = assay: Cell viability assay (MTT), fibroblasts; assay type: cell-based, human; conditions: 24 h
Method: (§2) Fibroblast cells (NHDF) and B16F1 cells were purchased from the American Type Culture Collection (ATCC, Manassas, VA, USA) and cells were cultured in DMEM supplemented with 10% heat-inactivated FBS, 1% penicillin-streptomycin solution, and 5% L-glutamine. RAW 264.7 cells were purchased from the American Type Culture Collection (ATCC, Manassas, VA, USA) and cells were cultured in RPMI supplemented with 10% heat-inactivated FBS and 1% penicillin-streptomycin solution. These cells were cultured at 37 °C in a 5% CO2 and 90% relative humidity incubator. Cell viability assay was performed using slight modifications of the protocol described by Phosri et al.. Briefly, fibroblast cells (NHDF) (8000 cells/well) and RAW 264.7 cells (25,000 cells/well) were seeded onto a 96-well plate and allowed to recover overnight. Then, the cells were incubated with different concentrations of peptides (final concentration of 0–1400 µM, 100 µL). After 24 h incubation, the culture medium was removed, and MTT was added (0.5% w/v, 100 µL). After incubation for a further 30 min at 37 °C, DMSO was added and the absorbance at 570 nm was measured. The cell viability was calculated using the equation below: Cell viability %=A570 sample/A570 control×100 where A570 sample and A570 control are the absorbance of cells with and without the peptide treatment. The data were represented as mean ± SD (n = 3). […]

RAW 264.7 cells = assay: Cell viability assay (MTT), macrophages; assay type: cell-based; conditions: 24 h
Method: as §2

mouse B16 melanomas = conditions: cited from earlier work
From the text: Bioactive peptides are a promising group of depigmenting agents because they are derived from natural sources and therefore display low cytotoxicity.

mushroom tyrosinase [5] = target: T1, mushroom tyrosinase (mushroom, UniProt C7FF04 1-392); assay: cell-based or functional assay
T1 sequence (C7FF04 1-392): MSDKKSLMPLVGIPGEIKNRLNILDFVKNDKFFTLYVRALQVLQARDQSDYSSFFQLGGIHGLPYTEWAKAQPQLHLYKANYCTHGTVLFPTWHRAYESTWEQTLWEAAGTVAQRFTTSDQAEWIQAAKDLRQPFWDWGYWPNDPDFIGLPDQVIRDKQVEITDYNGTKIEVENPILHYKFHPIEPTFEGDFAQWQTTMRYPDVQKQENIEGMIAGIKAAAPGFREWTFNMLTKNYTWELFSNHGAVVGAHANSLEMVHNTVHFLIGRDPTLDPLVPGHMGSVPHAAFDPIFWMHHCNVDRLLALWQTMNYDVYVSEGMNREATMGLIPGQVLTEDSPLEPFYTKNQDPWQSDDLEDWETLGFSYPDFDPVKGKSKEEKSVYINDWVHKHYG

mushroom tyrosinase [6] = target: T1, mushroom tyrosinase; assay: enzyme inhibition kinetics (Lineweaver-Burk plot and secondary plot); monophenolase activity of mushroom tyrosinase, L-tyrosine 0.10-0.80 mM, TILI-2 0-300 µM, 50 mM phosphate buffer pH 6.8, 25 °C, absorbance at 475 nm; Ki from slope versus TILI-2 concentration; conditions: both partners purified

O=C1O[C@H]([C@@H](O)CO)C(O)=C1O [Ascorbic acid, L-Ascorbic acid]
ABTS radical scavenging (range over concentrations) ([1]; 734 nm): 11.64–82.68%
IC50 ([1]; absorbance 734 nm, mean ± SD, n = 3): 15.9 ± 0.16 µM
DPPH radical scavenging (range over concentrations) ([2]; 515 nm): 13.79–82.63%
IC50 ([2]; absorbance 515 nm, mean ± SD, n = 3): 40.09 ± 0.21 µM

CNGVQPK [TILI-2]
cytotoxicity (in words) [3]: non-toxic
cytotoxicity (in words) [4]: not toxic
Cell viability (NHDF cells; 1400 µM): 99.65 ± 1.31%
cytotoxicity (in words) (NHDF cells; NHDF, 0 to 1400 µM, MTT): not toxic
Cell viability (RAW 264.7 cells; 1400 µM): 105.41 ± 5.42%
cytotoxicity (in words) (RAW 264.7 cells; RAW 264.7, 0 to 1400 µM, MTT): not toxic

LQPSHY [CT-2, CT-2 (LQPSHY), a C-terminus tyrosine peptide derived from rice bran]
melanogenesis (in words) (mouse B16 melanomas): repressed melanogenesis

B1: Tyrosinase Inhibitor Leucrocin I-2 (TILI-2) (peptide)
peptide: CNGVQPK
notes: N-terminal cysteine-containing heptapeptide, a peptide derivative from Leucrocin I; source: synthetic peptide (GL Biochem Ltd., Fmoc solid-phase synthesis, purity more than 95%)
IC50 of inhibition of tyrosinase monophenolase activity (L-tyrosine as substrate, A475) (mushroom tyrosinase [5]): 583 µM
Ki (mushroom tyrosinase [6]): 273 µM
